According to PubChem BioAssay (NCI):
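Growth conditions: 96-well plates. Treatment: test compound, 48 hours, 5 concentrations. Analysis: linear interpolation between bracketing concentrations; unreached endpoints set to highest concentration. GI50 marks 50% less growth. Definition used: TGI = concentration required for complete inhibition of growth.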

Tests used:
Test in all cases: NCI-60 cell line screen, 48 h
NCI-H522 lung = system: NCI-H522 lung
HOP-62 NSCLC = system: HOP-62 NSCLC
NCI-H460 lung = system: NCI-H460 lung
UO-31 renal = system: UO-31 renal
MDA-N = system: MDA-N
KM12 colon = system: KM12 colon
OVCAR-3 ovarian = system: OVCAR-3 ovarian
SNB-75 CNS = system: SNB-75 CNS
LOX IMVI melanoma = system: LOX IMVI melanoma
SF-539 CNS = system: SF-539 CNS

SMILES	TGI (NCI-H522 lung)	TGI (HOP-62 NSCLC)	TGI (NCI-H460 lung)	TGI (UO-31 renal)	TGI (MDA-N)	TGI (KM12 colon)	TGI (OVCAR-3 ovarian)	TGI (SNB-75 CNS)	TGI (LOX IMVI melanoma)	TGI (SF-539 CNS)	GI50 (NCI-H522 lung)	GI50 (HOP-62 NSCLC)	GI50 (SF-539 CNS)	GI50 (NCI-H460 lung)	GI50 (UO-31 renal)	GI50 (KM12 colon)	GI50 (OVCAR-3 ovarian)	GI50 (SNB-75 CNS)	GI50 (LOX IMVI melanoma)
O=C(c1ccccc1)c1ccc2nc(-c3c(Cl)c(Cl)c(Cl)c(Cl)c3C(=O)Nc3ccco3)[nH]c2c1	81.4 µM	> 100 µM	> 100 µM	> 100 µM	41 µM	> 100 µM	> 100 µM	> 100 µM	> 100 µM										
Cc1cccc(=O)c([O-])c1.Cc1cccc(=O)c([O-])c1.Cc1cccc(=O)c([O-])c1.Cc1cccc(=O)c([O-])c1.[Th+4]		> 100 µM	> 60.7 µM	> 100 µM		> 72.7 µM	> 22 µM	> 77.7 µM	> 100 µM	54.3 µM									
N#C[C@H]1C(=O)C(c2nc3ccccc3[nH]2)S[C@H]1c1ccccc1 (some centres not stated)	52.6 µM		> 100 µM	78.8 µM		> 100 µM	> 100 µM		> 100 µM										
O=[N+]([O-])c1cccc([N+](=O)[O-])c1Cl	29.5 µM	> 100 µM	> 100 µM	2.86 µM		29.5 µM	4.84 µM	67.5 µM	6.88 µM	35 µM									
COc1ccccc1NC(=O)CSC(N)=O	> 100 µM	80.2 µM	> 100 µM			> 100 µM	> 100 µM	84.3 µM	> 100 µM	70.4 µM									
COc1ccc(-c2cc(-c3ccc(OC)c(OC)c3)nc(SCCCC(=O)NO)n2)cc1	5.09 µM	6.47 µM	5.24 µM	1.44 µM		> 100 µM	5.46 µM	5.6 µM	1.06 µM	3.48 µM	0.787 µM	1.47 µM	1.31 µM	0.842 µM	0.301 µM	2.23 µM	1.69 µM	1.34 µM	0.243 µM
O=C1NC(=S)N/C1=C\c1ccc(Sc2ccccc2C(=O)O)s1	44.4 µM	> 100 µM	> 100 µM	> 100 µM	> 100 µM	> 100 µM	> 100 µM	> 100 µM	> 100 µM										
O=C1c2ccccc2C2(c3ccc(Cl)cc3)N[C@@H]3CCCC[C@@H]3N12 (some centres not stated)		> 100 µM	> 100 µM	> 100 µM	> 100 µM	> 100 µM	> 100 µM	> 100 µM	> 100 µM	> 100 µM									
c1cc2c3c(c1)[C@@H]1O[C@@H]1c1cccc(c1-3)[C@@H]1O[C@H]21	30.1 µM	> 100 µM		30.3 µM	41.9 µM	44 µM		70.1 µM	10.7 µM										
S=c1oc(CCCCCCCCc2nn(CNc3ccc(Cl)cc3)c(=S)o2)nn1CNc1ccc(Cl)cc1	> 100 µM	76.1 µM	> 100 µM	> 100 µM	> 100 µM	> 100 µM		> 100 µM											
COC(CC1(CCNc2ccccc2)C(=O)N(COCC[Si](C)(C)C)c2ccccc21)OC (configuration not stated)	24.2 µM	28 µM	34.4 µM	29.6 µM	> 68.2 µM	23.8 µM	31.6 µM	14.3 µM	29.7 µM										
C/C(=C\COP(=O)(O)OP(=O)(O)O)CC/C=C(\C)CNc1ccccc1	> 50 µM	> 50 µM	> 50 µM	> 50 µM		> 50 µM		> 50 µM	> 50 µM	> 50 µM									
COC(C/C=C\C=C\CC/C=C/CC(C)/C=C/C(=C\C(=O)O)CC(=O)O)/C(C)=C\C=C(/C)C(=O)O (configuration not stated)	> 100 µM	> 100 µM	> 100 µM	> 100 µM	> 100 µM	> 100 µM	> 100 µM	> 100 µM											
CCn1c(O)c(C(=O)NC(C)c2ccc([N+](=O)[O-])cc2)c(=O)n(CC)c1=S (configuration not stated)		6.54 µM	9.36 µM	5.58 µM	13.6 µM	5.58 µM	10.5 µM	5.34 µM	10.9 µM	13.4 µM									
O=C(O)c1cc(Nc2c(O)c3c(c(O)c2Cl)C(=O)C=CC3=O)ccc1O		> 10 µM	> 10 µM	> 10 µM	> 10 µM	> 10 µM	> 10 µM	> 10 µM	> 10 µM	> 10 µM									
C/C=C\C(CC(=O)NCCc1c[nH]c2ccccc12)CC(=O)OC (configuration not stated)	> 100 µM	> 100 µM	> 100 µM	> 100 µM	> 100 µM	> 100 µM	> 100 µM	> 100 µM											
COc1ccc(C2C3=CONC3CC3CCCCC32)cc1 (configuration not stated)	> 100 µM	> 100 µM	> 100 µM	> 100 µM			> 100 µM	> 100 µM	> 100 µM										
O=C(NCCNCCO)N/N=C/c1ccccc1	> 100 µM		> 100 µM			> 100 µM	> 100 µM	> 100 µM	> 100 µM	> 100 µM									

SMILES	TGI (NCI-H522 lung)	TGI (HOP-62 NSCLC)	TGI (NCI-H460 lung)	TGI (UO-31 renal)	TGI (MDA-N)	TGI (KM12 colon)	TGI (OVCAR-3 ovarian)	TGI (SNB-75 CNS)	TGI (LOX IMVI melanoma)	TGI (SF-539 CNS)	GI50 (NCI-H522 lung)	GI50 (HOP-62 NSCLC)	GI50 (SF-539 CNS)	GI50 (NCI-H460 lung)	GI50 (UO-31 renal)	GI50 (KM12 colon)	GI50 (OVCAR-3 ovarian)	GI50 (SNB-75 CNS)	GI50 (LOX IMVI melanoma)
Cc1c(Cl)c(=O)oc2cc(OCC(O)COC(C)C)ccc12 (configuration not stated)	> 100 µM	> 100 µM	> 100 µM	> 100 µM	> 100 µM	> 100 µM	> 100 µM		> 100 µM										
CCCCN(CCCC)C1=Nc2ccccc2-n2c(nnc2C(=O)OCC)C1	> 100 µM	> 100 µM	89.4 µM	> 100 µM		> 100 µM	> 100 µM	> 100 µM	> 100 µM	> 100 µM									
C=C1C(=O)O[C@H]2[C@H]1CC/C(COC(=O)/C=C/C(=O)OC/C1=C/CC[C@@]3(C)O[C@H]3[C@H]3OC(=O)C(=C)[C@@H]3CC1)=C\CC[C@@]1(C)O[C@@H]21	0.374 µM	> 100 µM	> 100 µM			> 100 µM		66.9 µM	2.4 µM	7.86 µM	0.171 µM	5.43 µM	2.5 µM	5.2 µM		5.19 µM		3.47 µM	1.07 µM
O=c1cnc2cc3ccccc3cc2[nH]1	> 100 µM	> 100 µM	> 100 µM	> 100 µM	> 100 µM	> 100 µM	> 100 µM	> 100 µM	> 100 µM										
CN1C(=O)C(CCO)(C(C)(C)C)c2ccccc21 (configuration not stated)		> 100 µM	> 100 µM	> 100 µM	> 100 µM	> 100 µM	> 100 µM	> 100 µM	> 100 µM										
c1ccc2c(c1)ccc1nc(-c3ccc4c(c3)OCO4)c3c(c12)CCC3		> 100 µM	> 100 µM	> 100 µM	> 100 µM	> 100 µM	> 100 µM	> 100 µM		> 100 µM									
Cc1ccc(S(=O)(=O)CC2CCCn3c2c(C#N)c2ccccc23)cc1 (configuration not stated)	> 100 µM	> 100 µM		> 100 µM		> 100 µM	> 100 µM	> 100 µM	> 100 µM	> 100 µM									
Cc1ccc(Cl)c2c(=O)cc(-c3ccccc3)[nH]c12	> 100 µM	> 100 µM	> 100 µM	> 100 µM		> 100 µM		87.1 µM	> 100 µM	> 100 µM									
Oc1ccc(O)c(Sc2nnc(CCCCCCCCc3nnc(Sc4cc(O)ccc4O)o3)o2)c1	55 µM	> 100 µM	> 100 µM	32 µM	32.9 µM	> 100 µM		> 100 µM											
O=c1[nH]nc(N/N=C\c2ccc(Cl)cc2)c2ccccc12	48 µM		47.9 µM	38.7 µM		52.3 µM	30.2 µM	47.6 µM		47.6 µM									
CCCOC1OC(CS(=O)(=O)O)C(OC(C)=O)C(OC(C)=O)C1OC(C)=O (configuration not stated)		> 100 µM	> 100 µM	> 100 µM	> 100 µM	> 100 µM	> 100 µM	> 100 µM	> 100 µM										
C=C1CN=C(Nc2ccc(F)cc2F)S1		> 100 µM	> 100 µM	> 100 µM	> 100 µM	> 100 µM		> 100 µM	49.2 µM	> 100 µM									
COc1ccc(C[C@H]2COC(=O)[C@@H]2Cc2ccccc2)cc1OC		> 100 µM	> 100 µM		> 100 µM	> 100 µM	> 100 µM		> 100 µM										
O=c1oc2ccccc2c(O)c1C(c1ccc(O)cc1)c1c(O)c2ccccc2oc1=O	62.8 µM	> 100 µM	> 100 µM	> 100 µM	> 100 µM	> 100 µM	> 100 µM	97.8 µM	> 100 µM										
O=C1/C(=C/C=C/c2ccccc2)CCC1CNc1ccc(Br)cc1 (configuration not stated)	57 µM	> 100 µM	> 100 µM	> 100 µM		> 100 µM	> 100 µM		> 100 µM	> 100 µM									
COC(C[C@H]1CCCC[C@]1(O)/C(=C\CO[Si](C(C)C)(C(C)C)C(C)C)Sc1ccccc1)OC	39.6 µM	> 100 µM	> 100 µM	> 100 µM	> 100 µM	> 100 µM		98.9 µM	37.5 µM										
COCCN(C(=O)c1ccccc1)C1CCC(=O)c2[nH]c3ccccc3c21 (configuration not stated)	6.93 µM	11.5 µM	34.9 µM	25.2 µM		21.9 µM	25.3 µM	16.5 µM	> 39.4 µM	24.3 µM									
